Experimental data: article PMC5800941 (Biochemistry, 2017)
Entries after “also recorded” stand apart in the source; their conditions may differ.

Key:
CYP3A4 = CYP3A4 (Homo sapiens, UniProt P08684, S18F); assay: Substrate binding to CYP3A4 in Nanodiscs: UV-Vis spectral titration; details: human, recombinant CYP3A4 in POPC Nanodiscs
CYP3A4 in POPC Nanodiscs [1] = target: T1, CYP3A4 in POPC Nanodiscs (Homo sapiens, UniProt P08684, S18F); assay: as above; details: for Fe^3+ Spin shift (fraction of high spin): 37 C
CYP3A4 in POPC Nanodiscs [2] = target: T1, CYP3A4 in POPC Nanodiscs; assay: Product formation; type: biochemical; details: binding intermediate with 1 substrate molecule bound; 37 C, pH 7.4
CYP3A4 in POPC Nanodiscs [3] = target: T1, CYP3A4 in POPC Nanodiscs; type: biochemical; details: mixture of ARVL and DND at constant molar ratio 2.9:1; one of each substrate bound

Kd (CYP3A4) [µM] | Kd (CYP3A4 in POPC Nanodiscs [1]) [nM] | Fe^3+ Spin shift (fraction of high spin) (CYP3A4 in POPC Nanodiscs [1]; binding intermediate with 1 substrate molecule bound) | Fe^3+ Spin shift (fraction of high spin) (CYP3A4 in POPC Nanodiscs [1]; binding intermediate with 2 substrate molecules bound) | Product formation rate (CYP3A4 in POPC Nanodiscs [2]) | SMILES | Rate of metabolism from the mixed intermediate (CYP3A4 in POPC Nanodiscs [3])
22 | 1000 | 22 [16 – 26] % | 62 [56 – 72] % | 13 [9.6 – 14.7] min^−1 | CC(C)c1c(C(=O)Nc2ccccc2)c(-c2ccccc2)c(-c2ccc(F)cc2)n1CC[C@@H]1C[C@@H](O)CC(=O)O1 [ARVL, atorvastatin lactone] | 31 min⁻¹
3.6 | – | – | – | 2.5 [1.6 – 3.4] min^−1 | CCCCc1oc2ccc(NS(C)(=O)=O)cc2c1C(=O)c1ccc(OCCCN(CCCC)CCCC)cc1 [DND, dronedarone] | No product of DND metabolism was detected; also recorded: completely inhibited
